Where two headings read alike, the source gives them in different places.
How the values were obtained:
Assay in all cases: microbe, parasite or virus in culture
Assay type in all cases: cell-based
[1] = tested on: pseudovirions harboring S protein from SARS-CoV-2 Gamma variant (P.1); details: Severe acute respiratory syndrome coronavirus 2
[2] = tested on: pseudovirions harboring S protein from SARS-CoV-2 Delta variant (B.1.617.2); details: for EC50: Severe acute respiratory syndrome coronavirus 2
[3] = tested on: pseudovirions harboring S protein from SARS-CoV-2 Alpha variant (B.1.1.7); details: for EC50: Severe acute respiratory syndrome coronavirus 2
[4] = tested on: pseudovirions harboring S protein from SARS-CoV-2 Beta variant (B.1.351); details: for EC50: Severe acute respiratory syndrome coronavirus 2
[5] = read-out: EC50, inhibition of cellular entry of pseudovirions, Gamma variant

Work on `COc1ccc(/C=C/C(=O)C(CC2CCC2)C(=O)/C=C/c2ccc(OC)c(OC)c2)cc1OC` [Compound B, 4-(cyclobutylmethyl)-1,7-bis(3,4-dimethoxyphenyl)hepta-1,6-diene-3,5-dione] yielded an EC50 [1, 5] of about 4.7 µM, an EC50 ([1]; read-out: EC50, prophylactic inhibition of cellular entry of pseudovirions, Gamma variant) of about 3.6 µM and an EC50 ([2]; read-out: EC50, inhibition of cellular entry of pseudovirions, Delta variant) of about 4.9 µM. The EC50 ([2]; read-out: EC50, prophylactic inhibition of cellular entry of pseudovirions, Delta variant) was about 3.8 µM, the EC50 ([3]; read-out: EC50, inhibition of cellular entry of pseudovirions, Alpha variant) was about 4.4 µM and the EC50 ([3]; read-out: EC50, prophylactic inhibition of cellular entry of pseudovirions, Alpha variant) was about 3.2 µM. The EC50 ([4]; read-out: EC50, inhibition of cellular entry of pseudovirions, Beta variant) was about 4.7 µM and the EC50 ([4]; read-out: EC50, prophylactic inhibition of cellular entry of pseudovirions, Beta variant) was about 3.3 µM.
In the case of `COc1ccc(/C=C/C(=O)C(F)(CC2CCC2)C(=O)/C=C/c2ccc(OC)c(OC)c2)cc1OC` [Compound A, 4-fluoro-4-cyclobutylmethyl-1,7-bis(3,4-dimethoxyphenyl)hepta-1,6-diene-3,5-dione], the EC50 [1, 5] is reported as about 4 µM, the “inhibition of cellular entry of pseudovirions with Spike variants (in words), Delta variant” value [2] is reported as “showed inhibition of cellular entry” and the “inhibition of cellular entry of pseudovirions with Spike variants (in words), Alpha variant” value [3] is reported as “showed inhibition of cellular entry”. For the same compound, the “inhibition of cellular entry of pseudovirions with Spike variants (in words), Beta variant” value [4] was “showed inhibition of cellular entry”.

Reference: US20220233468A1 (priority 2021, published 2022)
